Where “and” joins values, the source holds several entries; their conditions need not be identical. Identical values can stand only once. Toxic doses and inconclusive results are not listed.

In this assay the test system is L1210 leukemia ip in BDF1 mice, survival T/C. The experiment in a line: NCI In Vivo Anticancer Drug Screen. Data for tumor model L1210 Leukemia (intraperitoneal) in B6D2F1 (BDF1) mice. The settings on record: endpoint: mean survival time, higher = longer survival. The essentials: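 Each compound was tested against a transplantable tumor grown in mice. The endpoint was survival, with treated animals benchmarked against vehicle controls as a simple ratio.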

Setting [1] is: dose: 100.0 mg/kg/injection, schedule: Q04DX002 (ip), vehicle: saline with Tween-80.
Where [2] appears, read: dose: 100.0 mg/kg/injection, schedule: Q01DX001 (ip), vehicle: Klucel (hydroxypropylcellulose) (HPC).
Where [3] appears, read: dose: 200.0 mg/kg/injection, schedule: Q01DX001 (ip), vehicle: Klucel (hydroxypropylcellulose) (HPC).
The mark [4] stands for this setting: dose: 400.0 mg/kg/injection, schedule: Q01DX001 (ip), vehicle: Klucel (hydroxypropylcellulose) (HPC).
Setting [5] is: dose: 50.0 mg/kg/injection, schedule: Q01DX001 (ip), vehicle: carboxymethylcellulose (CMC).
Where [6] appears, read: dose: 100.0 mg/kg/injection, schedule: Q01DX001 (ip), vehicle: carboxymethylcellulose (CMC).
[7] abbreviates: dose: 200.0 mg/kg/injection, schedule: Q01DX001 (ip), vehicle: carboxymethylcellulose (CMC).
[8] abbreviates: dose: 400.0 mg/kg/injection, schedule: Q01DX001 (ip), vehicle: carboxymethylcellulose (CMC).

`CCCCCCCCCCCCNc1ccc(S(=O)(=O)c2ccc(N)cc2)cc1`: the T/C was 100 % of control under setting [1]; 97 % of control (dose: 200.0 mg/kg/injection, schedule: Q04DX002 (ip), vehicle: saline with Tween-80); 103 % of control (dose: 400.0 mg/kg/injection, schedule: Q04DX002 (ip), vehicle: saline with Tween-80).
Turning to `c1ccc(C2=Nc3ccccc3-c3ccccc3N2)cc1`, the T/C is, setting by setting: (dose: 100.0 mg/kg/injection, schedule: Q01DX001 (ip), vehicle: saline with Tween-80) 100 % of control; (dose: 200.0 mg/kg/injection, schedule: Q01DX001 (ip), vehicle: saline with Tween-80) 103 % of control; (dose: 400.0 mg/kg/injection, schedule: Q01DX001 (ip), vehicle: saline with Tween-80) 106 % of control.
In the case of `COc1ccc([N+](=O)[O-])cc1NC(=O)Nc1cc(C)on1`, the T/C reads like this: under setting [2], 91 % of control; (dose: 100.0 mg/kg/injection, schedule: Q01DX009 (ip), vehicle: Klucel (hydroxypropylcellulose) (HPC)) 96 % of control and 87 % of control; (dose: 100.0 mg/kg/injection, schedule: Q04DX002 (ip), vehicle: Klucel (hydroxypropylcellulose) (HPC)) 103 % of control and 91 % of control; (dose: 100.0 mg/kg/injection, schedule: Q04DX003 (ip), vehicle: Klucel (hydroxypropylcellulose) (HPC)) 92 % of control; under setting [3], 95 % of control; (dose: 200.0 mg/kg/injection, schedule: Q01DX009 (ip), vehicle: Klucel (hydroxypropylcellulose) (HPC)) 98 % of control and 91 % of control. Besides, the T/C (dose: 200.0 mg/kg/injection, schedule: Q04DX002 (ip), vehicle: Klucel (hydroxypropylcellulose) (HPC)) is 97 % of control and 91 % of control; the T/C (dose: 200.0 mg/kg/injection, schedule: Q04DX003 (ip), vehicle: Klucel (hydroxypropylcellulose) (HPC)) was 89 % of control; the T/C under setting [4] was 86 % of control; the T/C (dose: 400.0 mg/kg/injection, schedule: Q01DX009 (ip), vehicle: Klucel (hydroxypropylcellulose) (HPC)) is 95 % of control and 98 % of control; the T/C (dose: 400.0 mg/kg/injection, schedule: Q04DX002 (ip), vehicle: Klucel (hydroxypropylcellulose) (HPC)) was 97 % of control; the T/C (dose: 400.0 mg/kg/injection, schedule: Q04DX003 (ip), vehicle: Klucel (hydroxypropylcellulose) (HPC)) was 96 % of control.
Turning to `CCOP(=O)(Nc1ccc2c(c1)Cc1cc(Br)ccc1-2)OCC`, the T/C is, setting by setting: under setting [5], 105 % of control; under setting [6], 92 % of control; under setting [7], 105 % of control; under setting [8], 108 % of control.
As for `N#CCCC(=O)c1cccnc1`, the T/C is, setting by setting: (dose: 100.0 mg/kg/injection, schedule: Q04DX002 (ip), vehicle: saline) 108 % of control; (dose: 200.0 mg/kg/injection, schedule: Q04DX002 (ip), vehicle: saline) 90 % of control; (dose: 400.0 mg/kg/injection, schedule: Q04DX002 (ip), vehicle: saline) 93 % of control.
Consider `N#Cc1cn(C2OC(CO)C(O)C2O)c2ncnc(N)c12` (stereo not given), for which the T/C runs as follows: (dose: 0.04 mg/kg/injection, schedule: Q01DX009 (ip), vehicle: saline) 119 % of control; (dose: 0.08 mg/kg/injection, schedule: Q01DX005 (ip), vehicle: saline) 86 % of control; (dose: 0.09 mg/kg/injection, schedule: Q01DX009 (ip), vehicle: saline) 107 % of control; (dose: 0.12 mg/kg/injection, schedule: Q01DX005 (ip), vehicle: saline) 96 % of control.
For `O=C(CCN1CC1)OCCCl`, the T/C (dose: 50.0 mg/kg/injection, schedule: Q01DX001 (ip), vehicle: Klucel (hydroxypropylcellulose) (HPC)) was 112 % of control; the T/C under setting [2] was 106 % of control; the T/C under setting [3] was 101 % of control; the T/C under setting [4] was 111 % of control.
On to `S=C(S)N1CCOCC1.[Cu+2]`, for which the T/C is 88 % of control under setting [5] and 107 % of control under setting [6].
With `CCC(=N)C1CCCCC1`, the T/C is, setting by setting: (dose: 75.0 mg/kg/injection, schedule: Q01DX001 (ip), vehicle: carboxymethylcellulose (CMC)) 102 % of control; (dose: 150.0 mg/kg/injection, schedule: Q01DX001 (ip), vehicle: carboxymethylcellulose (CMC)) 93 % of control.
As to `O=C(O)CC(Br)C(=O)c1ccccc1` (stereo not given), the T/C (dose: 12.5 mg/kg/injection, schedule: Q01DX009 (ip), vehicle: saline with Tween-80) was 91 % of control; the T/C (dose: 12.5 mg/kg/injection, schedule: Q04DX003 (ip), vehicle: saline with Tween-80) is 96 % of control; the T/C (dose: 25.0 mg/kg/injection, schedule: Q01DX009 (ip), vehicle: saline with Tween-80) was 95 % of control; the T/C (dose: 25.0 mg/kg/injection, schedule: Q04DX003 (ip), vehicle: saline with Tween-80) was 96 % of control; the T/C (dose: 50.0 mg/kg/injection, schedule: Q01DX009 (ip), vehicle: saline with Tween-80) was 95 % of control; the T/C (dose: 50.0 mg/kg/injection, schedule: Q04DX003 (ip), vehicle: saline with Tween-80) is 104 % of control.
As for `CCCCSP(=O)(c1ccccc1)N1CCCCC1` (stereo not given), the T/C reads like this: (dose: 25.0 mg/kg/injection, schedule: Q04DX002 (ip), vehicle: saline with Tween-80) 100 % of control; (dose: 50.0 mg/kg/injection, schedule: Q04DX002 (ip), vehicle: saline with Tween-80) 92 % of control; under setting [1], 92 % of control and 97 % of control.
With `O=C(Nc1cccc2ccccc12)N1CCCc2ccccc21`, the T/C is, setting by setting: under setting [5], 88 % of control; under setting [6], 98 % of control; under setting [7], 95 % of control; under setting [8], 90 % of control.
As for `BrCc1cccc2ccccc12`, the T/C (dose: 25.0 mg/kg/injection, schedule: Q01DX009 (ip), vehicle: acetone) is 96 % of control; the T/C (dose: 50.0 mg/kg/injection, schedule: Q01DX009 (ip), vehicle: acetone) was 95 % of control; the T/C (dose: 50.0 mg/kg/injection, schedule: Q04DX003 (ip), vehicle: saline) is 90 % of control; the T/C (dose: 100.0 mg/kg/injection, schedule: Q01DX001 (ip), vehicle: saline) is 98 % of control; the T/C (dose: 100.0 mg/kg/injection, schedule: Q01DX009 (ip), vehicle: acetone) was 95 % of control; the T/C (dose: 100.0 mg/kg/injection, schedule: Q04DX003 (ip), vehicle: saline) is 87 % of control. Also, where the note is “dose: 200.0 mg/kg/injection, schedule: Q01DX001 (ip), vehicle: saline”, the T/C was 102 % of control.
For `O=c1cc(CCCCCc2ccccc2)[nH]c(=O)[nH]1`, the T/C reads like this: under setting [2], 97 % of control; under setting [3], 97 % of control; under setting [4], 101 % of control.
As to `Cc1cc(NC(=O)Nc2ccc(C3=NCCCN3)cc2)ccc1NC(=O)Nc1ccc(C2=NCCCN2)cc1`, the T/C runs as follows: (dose: 3.0 mg/kg/injection, schedule: Q01DX Z (ip), vehicle: water) 113 % of control; (dose: 4.5 mg/kg/injection, schedule: Q01DX Z (ip), vehicle: water) 119 % of control; (dose: 6.0 mg/kg/injection, schedule: Q01DX Z (ip), vehicle: water) 109 % of control; (dose: 7.5 mg/kg/injection, schedule: Q01DX Z (ip), vehicle: water) 167 % of control; (dose: 10.0 mg/kg/injection, schedule: Q01DX Z (ip), vehicle: water) 220 % of control; (dose: 25.0 mg/kg/injection, schedule: Q01DX Z (oral), vehicle: water) 109 % of control. Also, the T/C was 103 % of control (dose: 50.0 mg/kg/injection, schedule: Q01DX Z (oral), vehicle: water); 163 % of control (dose: 100.0 mg/kg/injection, schedule: Q01DX009 (ip), vehicle: saline); 105 % of control (dose: 100.0 mg/kg/injection, schedule: Q01DX Z (oral), vehicle: water); 109 % of control (dose: 200.0 mg/kg/injection, schedule: Q01DX Z (oral), vehicle: water).
For `COc1ccc(C2CCc3cc(OC)c(OC)cc3C2NC=O)cc1OC` (stereo not given), the T/C reads like this: (dose: 40.0 mg/kg/injection, schedule: Q01DX009 (ip), vehicle: saline with Tween-80) 90 % of control; (dose: 80.0 mg/kg/injection, schedule: Q01DX009 (ip), vehicle: saline with Tween-80) 102 % of control; (dose: 120.0 mg/kg/injection, schedule: Q01DX009 (ip), vehicle: saline with Tween-80) 93 % of control; (dose: 240.0 mg/kg/injection, schedule: Q01DX009 (ip), vehicle: saline with Tween-80) 90 % of control; (dose: 360.0 mg/kg/injection, schedule: Q01DX009 (ip), vehicle: saline with Tween-80) 87 % of control.

These data come from PubChem BioAssay AID248 (DTP/NCI, 2004).
